Assay results reported in US7307099B2, “4-(1-(sulfonyl)-1h-indol-2-yl)-4-(hydroxy)-cyclohexa-2,5-dienone compounds and analogs thereof as therapeutic agents” (Cancer Research Technology Limited, priority 2002, dated 2007).
Where two headings read alike, the source gives them in different places.

Legend:
HCT 116 colon carcinoma = experiment: Growth inhibitory assay (MTT, 72 hour exposure), HCT 116; type: cell-based; details: Homo sapiens, HCT 116, MTT
Method: (§1) Compounds were prepared as 10 mM top stocks, dissolved in DMSO, and stored at 4° C., protected from light, for a maximum period of 4 weeks. Human derived cell lines (HCT 116, HT29 colon carcinoma) were routinely cultivated at 37° C. in an atmosphere of 5% CO2 in RPMI 1640 medium supplemented with 2 mM L-glutamine and 10% fetal calf serum and subcultured twice weekly to maintain continuous logarithmic growth. Cells were seeded into 96-well microtiter plates at a density of 5×10^3 per well and allowed 24 hours to adhere before drugs were introduced (final concentration 0.1 nM-100 μM, n=8). Serial drug dilutions were prepared in medium immediately prior to each assay. At the time of drug addition and following 72 hour exposure, MTT was added to each well (final concentration 400 µg/mL). Incubation at 37° C. for 4 hr allowed reduction of MTT by mitochondrial dehydrogenase to an insoluble formazan product. Well contents were aspirated and formazan solubilized by addition of DMSO:glycine buffer (pH 10.5) (4:1). Absorbance was measured using an Anthos Labtec systems plate reader at 550 nm, and used as a measure of cell viability; thus cell growth or drug toxicity was determined.

LOX IMVI (melanoma) = experiment: NCI in vitro 60 cell panel, LOX IMVI; type: cell-based; details: Homo sapiens, read-out: Most Senstive Cells Lines mean log10 LC50 (converted)
Method: (§2) Compounds were tested for in vitro activity (48 hour drug exposure) across 60 human cancer cell lines through the National Cancer Institute (NCl) Developmental Therapies Screening Program (Boyd et al., 1995).

[1] = tested on: 60 human cancer cell lines; experiment: NCI in vitro 60 cell panel (48 hour drug exposure); type: cell-based; details: for LC50: read-out: Mean log10 LC50 (converted)
Method: as §2

HCT-116 (colon) = experiment: NCI in vitro 60 cell panel, HCT-116; type: cell-based; details: Homo sapiens, read-out: Most Senstive Cells Lines mean log10 LC50 (converted)
Method: as §2

HT29 colon carcinoma = experiment: Growth inhibitory assay (MTT, 72 hour exposure), HT29; type: cell-based; details: Homo sapiens, HT 29, MTT
Method: as §1

U251 (CNS cancer) = experiment: NCI in vitro 60 cell panel, U251; type: cell-based; details: Homo sapiens, U-251, read-out: Most Senstive Cells Lines mean log10 LC50 (converted)
Method: as §2

[2] = molecular target: T1, Thioredoxin/Thioredoxin Reductase (Tx/TR) (Homo sapiens, UniProt P10599); experiment: Thioredoxin/thioredoxin reductase-catalysed reduction of insulin; type: biochemical; details: 30 min at 37° C.
T1 construct: was purified from human placenta as previously described; made in house; host or cells: hTrx: Escherichia coli; TR: purified from human placenta tissue
T1 sequence (P10599 2-105 limits assumed): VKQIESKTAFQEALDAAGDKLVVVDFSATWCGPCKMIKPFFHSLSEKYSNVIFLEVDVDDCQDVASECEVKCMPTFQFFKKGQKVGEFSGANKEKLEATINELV
Method: Assays were performed using methods analogous to those described in Kirkpatrick et al., 1999 and Kunkel et al., 1997.
[…] (specific activity 43.6 μmol NADPH reduced/min/mg protein at 21° C.) was purified from human placenta as previously described (Oblong et al., 1993). Recombinant hTrx was expressed in Escherichia coli and purified as previously described (Gasdaska et al., 1994). The Trx and TR were stored at −20° C. with 5 mM dithiothreitol (DTT) which was removed before use with a desalting column (PDIO, Pharmacla, Uppsala, Sweden).
Microtitre plate colorimetric assays, based on the increase in absorbance at 405 nm which occurs as dithionitrobenzoic acid (DTNB) is reduced by the enzyme-mediated transfer of reducing equivalents from NADPH, were used to measure TR/Trx-dependent insulin-reduction and TR activity (see, e.g., Kunkel et al., 1997).
Thioredoxin reductase/thioredox […] insulin reducing activity was measured in an incubation with a final volume of 60 μL containing 100 mM HEPES buffer, pH 7.2, 5 mM EDTA (HE buffer), 1 mM NADPH, 1.0 μM thioredoxin reductase, 0.8 μM thioredoxin, and 2.5 mg/ml bovine insulin in flat-bottom 96-well microtitre plates. […] The reaction was stopped by the addition of 100 μL of 6 M guanidine HCl, 50 mM Tris, pH 8.0, and 10 mM DTNB, and the absorbance measured at 405 nm.

ACHN (renal) = experiment: NCI in vitro 60 cell panel, ACHN; type: cell-based; details: Homo sapiens, read-out: Most Senstive Cells Lines mean log10 LC50 (converted)
Method: as §2

[3] = in fetal calf serum; cited from earlier work
[4] = Maximum tolerated dose in mice; details: mouse, in vivo, daily (×5) schedule
Method: (§3) The in vivo activity of SIQ-01 was studied. The maximum tolerated dose of SIQ-01 in mice is 30 mg/kg on a daily (×5) schedule. Combination treatment of SIQ-01 and cisplatin was active against the HCT116 colon carcinoma tumour when administered to tumour-bearing mice (15 mg SIC-01/kg administered by intraperitoneal injection on days 1-5 and 8-10; 4 mg cisplatin/kg administered subcutaneously on days 1 and 8), and gave a maximum T/C (Test/Control) of 49%. Treatment with cisplatin alone (same regimen) gave a maximum T/C (Test/Control) of 56%.

CAKI-1 (renal) = experiment: NCI in vitro 60 cell panel, CAKI-1; type: cell-based; details: Homo sapiens, read-out: Most Senstive Cells Lines mean log10 LC50 (converted)
Method: as §2

[5] = tested on: HCT116 colon carcinoma tumour; experiment: HCT116 colon carcinoma tumour in tumour-bearing mice; type: in vivo
Method: as §3

RXF 393 (renal) = experiment: NCI in vitro 60 cell panel, RXF 393; type: cell-based; details: Homo sapiens, read-out: Most Senstive Cells Lines mean log10 LC50 (converted)
Method: as §2

UO-31 (renal) = experiment: NCI in vitro 60 cell panel, UO-31; type: cell-based; details: Homo sapiens, read-out: Most Senstive Cells Lines mean log10 LC50 (converted)
Method: as §2

[6] = 60 cell, as in Table 3, read-out: Mean GI50
[7] = mean across 60 cell lines, 48 hour drug exposure
[8] = mean across 60 cell lines, 48 hour drug exposure, read-out: mean log10 GI50 (converted)

Compound | IC50 (HCT 116 colon carcinoma) [nM] | CC50 (LOX IMVI (melanoma)) [nM] | GI50 [1, 6] [nM] | LC50 [1, 7] [nM] | GI50 [1, 8] [nM] | CC50 (HCT-116 (colon)) [nM] | IC50 (HT29 colon carcinoma) [nM] | also measured
O=C1C=CC(O)(c2cc3cc(F)ccc3n2S(=O)(=O)c2ccccc2)C=C1 [SIQ-03, 4-(1-benzenesulfonyl-5-fluoro-1H-indol-2-yl)-4-hydroxy-cyclohexa-2,5-dienone] | 68 | 63.1 | 527 | 3240 | 66.1 | 50.1 | 347 | –
O=C1C=CC(O)(c2cc3ccccc3n2S(=O)(=O)c2ccc3ccccc3c2)C=C1 [SIQ-07] | 193 | – | – | 5620 | 191 | 372 | 274 | CC50 (U251 (CNS cancer)): 513 nM
Cc1ccc(S(=O)(=O)n2c(C3(O)C=CC(=O)C=C3)cc3ccccc32)cc1 [SIQ-04] | 36 | 234 | < 100 | 7240 | 112 | 47.9 | 206 | IC50 [2]: < 100000 nM
COc1ccc2c(c1)cc(C1(O)C=CC(=O)C=C1)n2S(=O)(=O)c1ccccc1 [SIQ-02, 4-(1-benzenesulfonyl-5-methoxy-1H-indol-2-yl)-4-hydroxy-cyclohexa-2,5-dienone] | – | 468 | – | 6170 | 135 | – | – | CC50 (ACHN (renal)): 447 nM
O=CN/C=C/c1cc(O)ccc1O [erbstatin] | – | – | – | – | – | – | – | half-life [3]: < 30 min
O=C1C=CC(O)(c2cc3ccccc3n2S(=O)(=O)c2ccccc2)c2ccccc21 (stereo not drawn) [SIQ-10, 4-(1-benzenesulfonyl-1H-indol-2-yl)-4-hydroxy4H-naphthalen-1-one] | 205 | 776 | – | 7760 | 447 | 794 | 444 | –
O=C1C=CC(O)(c2cc3ccccc3n2S(=O)(=O)c2ccccc2)C=C1 [SIQ-01, 4-(1-benzenesulfonyl-1H-indol-2-yl)-4-hydroxy-cyclohexa-2,5-dienone] | 86 | – | 152 | 2950 | 38.9 | 33.1 | 259 | MTD at 5 days [4]: 30 mg/kg; CC50 (CAKI-1 (renal)): 52.5 nM; maximum T/C (Test/Control) ([5]; combination with cisplatin: 15 mg/kg i.p. days 1-5 and 8-10, 4 mg cisplatin/kg s.c. days 1 and 8): 49%
N.N.[Cl][Pt][Cl] [cisplatin, reference compound] | – | – | – | – | – | – | – | maximum T/C (Test/Control) ([5]; cisplatin alone, 4 mg/kg s.c. days 1 and 8): 56%
COc1ccc(S(=O)(=O)n2c(C3(O)C=CC(=O)C=C3)cc3ccccc32)cc1 [SIQ-05] | 203 | 380 | – | 6310 | 162 | 112 | 420 | –
CC(C)c1cc(C(C)C)c(S(=O)(=O)n2c(C3(O)C=CC(=O)C=C3)cc3ccccc32)c(C(C)C)c1 [SIQ-09] | – | – | – | 11200 | 427 | 550 | – | CC50 (RXF 393 (renal)): 776 nM
O=C1C=CC(O)(c2cc3ccccc3n2S(=O)(=O)c2ccc(F)cc2)C=C1 [SIQ-06, 4-[1-(4-fluoro-benzenesulfonyl)-1H-indol-2-yl]-4-hydroxy-cyclohexa-2,5-dienone] | – | – | – | 7760 | 234 | 363 | – | CC50 (UO-31 (renal)): 631 nM
Cc1ccc(S(=O)(=O)n2c(C3(O)C=CC(=O)c4ccccc43)cc3ccccc32)cc1 (stereo not drawn) [SIQ-11, 4-hydroxy 4-[1-(toluene-4-sulfonyl)-1H-indol-2-yl]-4H-naphthalen-1-one] | 155 | 724 | > 1000 | 5620 | 389 | 490 | 391 | –
